Reference: the NIST ThermoML archive (doi:10.1016/j.jct.2017.08.004)
± gives the expanded uncertainty stated by the source.

Assay: molar heat capacity at constant pressure
Settings: 101.33 kPa, Small sample (50 mg) DSC

OC[C@@H](O)[C@H](O)[C@@H](O)CO [xylitol]
Settings | molar heat capacity at constant pressure [J/K/mol]
330 K, Crystal | 236.23 ± 15
330.15 K, Crystal | 236.5 ± 15
331.15 K, Crystal | 237.35 ± 15
332.15 K, Crystal | 238.2 ± 15
333.15 K, Crystal | 238.98 ± 15
334.15 K, Crystal | 239.74 ± 15
335 K, Crystal | 240.51 ± 15
335.15 K, Crystal | 240.54 ± 15
336.15 K, Crystal | 241.37 ± 15
337.15 K, Crystal | 242.09 ± 15
338.15 K, Crystal | 242.99 ± 15
339.15 K, Crystal | 244.05 ± 15
340 K, Crystal | 245.1 ± 15
340.15 K, Crystal | 244.86 ± 15
341.15 K, Crystal | 245.84 ± 15
342.15 K, Crystal | 246.78 ± 15
343.15 K, Crystal | 247.9 ± 15
345 K, Crystal | 250.14 ± 15
384.05 K, Liquid | 437.55 ± 27
384.15 K, Liquid | 437.54 ± 27
385 K, Liquid | 437.31 ± 27
385.15 K, Liquid | 437.23 ± 27
386.15 K, Liquid | 436.89 ± 27
387.15 K, Liquid | 436.55 ± 27
388.15 K, Liquid | 436.95 ± 27
389.15 K, Liquid | 436.95 ± 27
390 K, Liquid | 437.71 ± 27
390.15 K, Liquid | 437.09 ± 27
391.15 K, Liquid | 437.18 ± 27
392.15 K, Liquid | 437.31 ± 27
393.15 K, Liquid | 437.7 ± 27
394.15 K, Liquid | 438.11 ± 27
395 K, Liquid | 438.53 ± 27
395.15 K, Liquid | 438.36 ± 27
396.15 K, Liquid | 438.65 ± 27
397.15 K, Liquid | 439 ± 27
398.15 K, Liquid | 439.02 ± 27
399.15 K, Liquid | 439.36 ± 27
400 K, Liquid | 439.66 ± 27
400.15 K, Liquid | 439.81 ± 27
401.15 K, Liquid | 440.13 ± 27
402.15 K, Liquid | 440.23 ± 27
403.15 K, Liquid | 440.54 ± 27
404.15 K, Liquid | 441 ± 27
405 K, Liquid | 440.98 ± 27
405.15 K, Liquid | 441.38 ± 27
406.15 K, Liquid | 441.87 ± 27
407.15 K, Liquid | 442.08 ± 27
408.15 K, Liquid | 442.44 ± 27
409.15 K, Liquid | 442.7 ± 27
410 K, Liquid | 442.38 ± 27
410.15 K, Liquid | 442.88 ± 27
411.15 K, Liquid | 443.4 ± 27
412.15 K, Liquid | 443.35 ± 27
413.15 K, Liquid | 443.38 ± 27
414.15 K, Liquid | 443.78 ± 27
415 K, Liquid | 443.73 ± 27
415.15 K, Liquid | 443.82 ± 27
416.15 K, Liquid | 444.07 ± 27
417.15 K, Liquid | 444.35 ± 27
418.15 K, Liquid | 444.54 ± 27
419.15 K, Liquid | 444.75 ± 27
420 K, Liquid | 444.92 ± 27
420.15 K, Liquid | 444.83 ± 27
421.15 K, Liquid | 444.89 ± 27
422.15 K, Liquid | 445.1 ± 27
423.15 K, Liquid | 445.32 ± 27
424.15 K, Liquid | 445.31 ± 27
425 K, Liquid | 445.83 ± 27
425.15 K, Liquid | 445.36 ± 27
426.15 K, Liquid | 445.64 ± 27
427.15 K, Liquid | 445.75 ± 27
428.15 K, Liquid | 445.78 ± 27
429.15 K, Liquid | 445.83 ± 27
430 K, Liquid | 446.33 ± 28
430.15 K, Liquid | 445.91 ± 27
431.15 K, Liquid | 446.11 ± 28
432.15 K, Liquid | 446.26 ± 28
433.15 K, Liquid | 446.16 ± 28
434.15 K, Liquid | 446.18 ± 28
435 K, Liquid | 446.32 ± 28
435.15 K, Liquid | 446.7 ± 28
436.15 K, Liquid | 446.78 ± 28
437.15 K, Liquid | 446.54 ± 28
438.15 K, Liquid | 446.6 ± 28
